Experiments:
D-dopachrome tautomerase = D-dopachrome tautomerase (Homo sapiens, UniProt P30046); assay: D-dopachrome tautomerase (DDT) enzyme assay with D-dopachrome substrate; format: biochemical; conditions: for D-Dopachrome Tautomerase at 100 μM (% of control): test compound 100 μM, remaining activity, 100% = inactive; for IC50: DDT assays similar to those described in Example 2
Protocol: A 125-mM sodium periodate working solution was prepared in H2O in an amber 5-mL vial (prepared fresh on the day of the assay). 4.3 mg of dihydroxy-D-phenylalanine (D-dopa) were weighed into a 20 mL scintillation vial equipped with a pierceable septa screw cap. With the use of a liquid transfer cannula, 12 mL of degassed buffer was first transferred into a 15 mL graduated conical tube and subsequently poured into the scintillation vial containing the D-dopa. The D-dopa was dissolved for ten (10) minutes while stirring under nitrogen. The resulting working solution was 1.8 mM. Once sodium periodate was added to the dissolved D-dopa, the resulting D-dopachrome was utilized immediately to prevent substrate degradation.
Concentrations were based on a final reaction volume of 200 μL. A total of 75 μL of buffer (100 mM potassium phosphate, pH 6.8) was added to each well of a clear flat bottom 96-well microtiter plate. To the blank control wells (no DDT), 25 μL of 10% glycerol/assay buffer was added. DMSO (5 μL) was added to blank wells and to the enzyme control wells (DDT alone with no inhibitors). […] To the remaining wells, 5 μL of test compounds diluted in DMSO was added for a final concentration of 100 μM. Lastly, 25 μL of DDT in assay buffer was added to all wells except for the substrate control wells. The concentration of DDT utilized was such that it produced a ΔOD475 of approximately 1.0 at the 40-second read time point between the blank and total.
With the use of a 1 mL syringe, 0.33 ml of the 125 mM sodium periodate working solution was added to the dissolved D-dopa and stirred for 30 seconds. The resulting D-dopachrome was transferred to a reagent reservoir and 100 μL immediately added to the first row of interest in the assay plate (resulting final substrate concentration in the assay is 0.9 mM). The plate was shaken for 2 seconds on a Spectromax plate reader and the decrease in absorbance measured over 40 seconds. 100 μL of D-dopachrome was added to the next row of interest in the assay plate and this procedure was repeated until four (4) rows were assayed and read. Often approximately 6-7 minutes, the remaining substrate was discarded.
Percent inhibition was calculated utilizing the OD values at the 40-second time point according to the following formula:
• A=percent inhibition of the unknown; • B=average percent inhibition for the 4 positive control values (within 4 distinct assay rows) generated with a single batch of substrate also used to assay the unknown of interest; • C=percent inhibition for the positive control for the assay row of interest which contains the unknown compound of interest.

mushroom tyrosinase [1] = assay: Mushroom tyrosinase assay with L-dopa; format: biochemical; conditions: for Mushroom Tyrosinase at 100 μM (% of control): test compound 100 μM, percent of untreated control reaction
Protocol: A stock solution of 10 mM L-dopa (3,4-Dihydroxyphenylalanine, Sigma Cat #D9628) was prepared in sodium phosphate buffer (100 mM, pH 7.0) along with a stock solution of 0.1 mg/mL (605 units/ml) mushroom tyrosinase (Sigma cat #T7755) in phosphate buffer and stored at […] 4° C. until use.
Test compounds (dissolved in DMSO) were first diluted in phosphate buffer to working concentrations of 1 mM. For each test, 150 μL of phosphate buffer, 10 μL of the L-dopa stock and 20 μL of each compound were added to each well of a 96 well clear bottom microtiter plate and mixed three times. 20 μL of mushroom tyrosinase stock solution was added, mixed and the absorbency read at 475 nm at 0, 2, 4, and 6.5 minutes. The points were plotted as absorbency vs. time and the slope of the line calculated. Values are expressed as the percent of the respective untreated control reaction. The final DMSO concentration in each sample was less than or equal to 1.0%

mushroom tyrosinase [2] = assay: Mushroom tyrosinase assay with L-dopa; format: biochemical; conditions: Tested at 1 μM
[3] = test system: Melanoderm tissue equivalent model MEL-300 containing melanocytes; assay: Melanoderm tissue equivalent model, total melanin content; format: cell-based; conditions: 10 μM in maintenance medium, 14 days
Protocol: Melanoderm™ tissue equivalent model MEL-300 (MatTek: Ashland, Mass.) containing melanocytes obtained from dark skin individuals were cultured as per supplier instructions. Components were added to the maintenance medium phase (no topical treatments) at a final concentration of 10 μM for 14 days at which time the experiment was terminated and the tissues assessed for melanin content. Medium and treatments were changed three times per week. DMSO was utilized as the vehicle control and all treatments were performed in duplicate.
For quantification of total melanin, each Melanoderm was placed into an individual Eppendorf tube (2 mL) into which 250 μL of Solvable™ tissue solubilizer (Packard Bioscience Co., Cat#6NE9100) was added. Each tube was vortexed and incubated at 60° C. for 18 hours. After about […], each sample was centrifuged (5-minutes at 13,000 RPMs) to remove any particulates. One hundred μL of supernatant were transferred to a 96 well microtiter plate and the absorbance read at 490 nm. Total melanin content was calculated from a standard curve using synthetic melanin (Sigma Cat#M8631).
All the following components were tested at a final concentration of 10 μM: […]

Chain of D-dopachrome tautomerase (P30046 2-118 limits assumed): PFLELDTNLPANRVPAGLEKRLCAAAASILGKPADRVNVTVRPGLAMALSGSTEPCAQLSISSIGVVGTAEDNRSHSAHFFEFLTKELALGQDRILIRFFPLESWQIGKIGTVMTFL

Compound | D-Dopachrome Tautomerase at 100 μM (% of control) (D-dopachrome tautomerase) | Mushroom Tyrosinase at 100 μM (% of control) (mushroom tyrosinase [1]) | also measured
CCc1ccc(O)cc1O [4-Ethyl Resorcinol, reference compound] | 100% of control |  | activity in the DDT assay (in words) (D-dopachrome tautomerase): inactive; inhibition of mushroom tyrosinase (in words) (mushroom tyrosinase [1]): potent inhibitor; Mushroom Tyrosinase (% of control) (mushroom tyrosinase [2]): 42.3% of control
CCc1ccc(NC(=O)/C=C/C(=O)O)cc1 [(E)-3-(4-ethylphenylcarbamoyl)acrylic acid] | 40.5% of control | 89.4% of control | 
O=c1c(-c2cc(O)c(O)c(O)c2)coc2cc(O)c(O)c(O)c12 [Irigenol, 5,6,7-trihydroxy-3-(3,4,5-trihydroxyphenyl)-4H-1-benzopyran-4-one] |  |  | IC50 (D-dopachrome tautomerase): 37.4 µM; Reduction in Melanin [3]: 7.0%
O=C1C=CC(=O)c2c(O)cccc21 [Juglone, 5-hydroxy-1,4-naphthalenedione] |  |  | IC50 (D-dopachrome tautomerase): 14.9 µM; Reduction in Melanin [3]: 32.8%
O=c1c(O)c(-c2ccc(O)cc2O)oc2cc(O)cc(O)c12 [Morin, 2-(2,4-dihydroxyphenyl)-3,5,7-4H-1-benzopyran-4-one] |  |  | IC50 (D-dopachrome tautomerase): 27.4 µM; Reduction in Melanin [3]: 7.2%
CC(C)CC(C(=O)NC1CCCC1)N(C(=O)c1snc(C(N)=O)c1N)c1ccccc1 (stereo not drawn) [N5-(1-(cyclopentylcarbamoyl)-3-methylbutyl)-4-amino-N5-phenylisothiazole-3,5-dicarboxamide] | 69.2% of control | 89.4% of control | 
CC(C)(C)NC(=O)C(c1c[nH]c2ccccc12)N(C(=O)c1snc(C(N)=O)c1N)c1ccccc1 (stereo not drawn) [N5-((tert-butylcarbamoyl)(1H-indol-3-yl)methyl)-4-amino-N5-phenylisothiazole-3,5-dicarboxamide] | 40.9% of control | 96.0% of control | 
CC(C)(C)NC(=O)C(c1ccc(F)cc1)N(C(=O)c1snc(C(N)=O)c1N)c1ccccc1 (stereo not drawn) [N5-((tert-butylcarbamoyl)(4-fluorophenyl)methyl)-4-amino-N5-phenylisothiazole-3,5-dicarboxamide] | 52.3% of control | 101.9% of control | 
O=C(O[C@@H]1Cc2c(O)cc(O)cc2O[C@@H]1c1cc(O)c(=O)c2c(O)c(O)cc([C@H]3Oc4cc(O)cc(O)c4C[C@H]3OC(=O)c3cc(O)c(O)c(O)c3)c2c1)c1cc(O)c(O)c(O)c1 [Theaflavin Digallate] |  |  | Reduction in Melanin [3]: 26.6%
CCCCC/C=C\C/C=C\C/C=C\C/C=C\CCCC(=O)O [arachidonic acid, reference compound] |  |  | inhibition at 75 µM (D-dopachrome tautomerase; 75 μM final concentration, read-out: inhibition of DDT (positive control)): ~50%
sodium isostearoyl lactylate |  |  | IC50 (D-dopachrome tautomerase): 14.6 µM; Reduction in Melanin [3]: 6.2%

More lines, main results first:

D-Dopachrome Tautomerase at 100 μM (% of control) (D-dopachrome tautomerase) | Mushroom Tyrosinase at 100 μM (% of control) (mushroom tyrosinase [1]) | Compound | also measured
56.1% of control | 99.3% of control | Oc1nc2cc(I)c(I)cc2o1 [5,6-diiodobenzo[d]oxazol-2-ol] | 
14.9% of control | 90.8% of control | CCOC(=O)c1c(NC(=O)/C=C/C(=O)O)sc2c1CCC(C(C)(C)CC)C2 (stereo not drawn) [(E)-3-(3-(ethoxycarbonyl)-6-tert-pentyl-4,5,6,7-tetrahydrobenzo[b]thiophen-2-ylcarbamoyl)acrylic acid] | 
8.4% of control | 88.2% of control | CC(C)(C)C1CCc2c(sc(NC(=O)/C=C/C(=O)O)c2C#N)C1 (stereo not drawn) [(E)-3-(6-tert-butyl-3-cyano-4,5,6,7-tetrahydrobenzo[b]thiophen-2-ylcarbamoyl)acrylic acid] | 
64.9% of control | 105.2% of control | CC(C)CC(C(=O)NC1CCCC1)N(C(=O)c1snc(C(N)=O)c1N)c1cccc(F)c1 (stereo not drawn) [N5-(1-(cyclopentylcarbamoyl)-3-methylbutyl)-4-amino-N5-(3-fluorophenyl)isothiazole-3,5-dicarboxamide] | 
65.7% of control | 100.6% of control | CC(C)CC(C(=O)NC1CCCC1)N(C(=O)c1snc(C(N)=O)c1N)c1ccc(F)cc1 (stereo not drawn) [N5-(1-(cyclopentylcarbamoyl)-3-methylbutyl)-4-amino-N5-(4-fluorophenyl)isothiazole-3,5-dicarboxamide] | 
66.8% of control | 101.8% of control | NC(=O)c1nsc(C(=O)N(c2ccccc2)C(C(=O)NC2CCCC2)c2cccs2)c1N (stereo not drawn) [N5-((cyclopentylcarbamoyl)(thiophen-2-yl)methyl)-4-amino-N5-phenylisothiazole-3,5-dicarboxamide] | 
48.0% of control | 106.1% of control | CC(C)(C)NC(=O)C(c1ccc(F)cc1)N(C(=O)c1snc(C(N)=O)c1N)c1cccc(F)c1 (stereo not drawn) [N5-((tert-butylcarbamoyl)(4-fluorophenyl)methyl)-4-amino-N5-(3-fluorophenyl)isothiazole-3,5-dicarboxamide] | 
69.9% of control | 98.6% of control | CC(C)(C)NC(=O)C(c1ccc(F)cc1)N(Cc1ccccc1)C(=O)c1snc(C(N)=O)c1N (stereo not drawn) [N5-((tert-butylcarbamoyl)(4-fluorophenyl)methyl)-4-amino-N5-benzylisothiazole-3,5-dicarboxamide] | 
64.3% of control | 102.5% of control | CCCC(C(=O)NC(C)(C)C)N(Cc1ccccc1Cl)C(=O)c1snc(C(N)=O)c1N (stereo not drawn) [N-5-(1-(tert-butylcarbamoyl)butyl)-N5-(2-chlorobenzyl)-4-aminoisothiazole-3,5-dicarboxamide] | 
65.3% of control | 100.0% of control | CNC(=O)c1ccccc1NC(=O)c1c(O)nc2c(c1O)CCCC2 [N-(2-(methylcarbamoyl)phenyl)-5,6,7,8-tetrahydro-2,4-dihydroxyquinoline-3-carboxamide] | 

Reference: patent US20100158829A1, “Method and Composition for Color Modulation” (Conopco, Inc., d/b/a UNILEVER, priority 2008, published 2010)
